This note sets out measurements from US12707888B2, “Asymmetric donor-acceptor molecular dyes” (THE UNIVERSITY OF NORTH CAROLINA AT CHARLOTTE, priority 2019, dated 2026).

This data set is described as follows: Temperature studies of emission in MeTHF (thermofluorochromism). The following applies: for wavelength of emission: 10 μM in MeTHF. Format: physicochemical. As for the experimental part:
In an extension of sensing the surrounding polarity, the dependence of the wavelength of emission as a function of temperature and pH were also explored. For these efforts, Bu2N-TTz-Py was chosen as a focal representative of the asymmetric TTzs for its solubility, amphiphilicity, high Stokes shifts, and otherwise similar photophysical characteristics. For the temperature studies, a 10 μM MeTHF solution of Bu2N-TTz-Py was prepared and the emission of the solution was monitored from −196-60° C. MeTHF was chosen for its wide liquid temperature window and ability to form a glass upon freezing; most other solvents crystallize upon solidification and inhibit fluorescence. The low temperature studies were achieved using various liquid N2 cooling baths (see Experimental). Due to the condensation of atmospheric moisture during low-temperature testing, only the normalized emission intensities are reported. […] At temperatures near the freezing point of MeTHF and below, however, the wavelength of emission rapidly blue-shifts from 559 to 544 to 503 nm at −131, −136, and −196° C., respectively.
4-pyridine carboxaldehyde, 4-(dibutylamino)benzaldehyde, 4-(diphenylamino)benzaldehyde, terephthalaldehyde, dithiooxamide, and all solvents used for spectroscopic measurements were purchased from Sigma-Aldrich and used without further purification. ^1H and ^13CNMR measurements were obtained with either a JEOL 300 MHz NMR or a JEOL 500 MHz NMR. High resolution mass spectra were obtained using a Thermo Fisher Scientific MSQ Plus Single Quadrupole Mass Spectrometer. Solution-state UV-Vis spectra were collected on a Cary 300 UV-Vis spectrophotometer. Time-resolved measurements were taken on a Jobin Yvon-Spex Fluorolog equipped with a 389 nm diode laser for time-resolved PL decay measurements. Igor Pro 6.3 software was used to fit PL(t) decay data to single/multiple exponential decays. Quantum yields were calculated using 9,10-diphenylanthracene as a reference (quantum yield [ΦF] in cyclohexane=0.97).^40-41 Density functional theory (DFT) calculations were performed with Spartan computational software using B3LYP^42-43 density functional and 6-31G*^44 basis set. Temperature studies were conducted using a 10 μM Bu2N-TTz-Py MeTHF solution placed inside of a Norrell 502 NMR tube and sequentially submerged in the following liquid N2 baths:octanol (−16° C.), acetonitrile (−41° C.), acetone (−94° C.), pentane (−131° C.), MeTHF (−136° C.), and liquid N2 itself (−196° C.). The phosphorescence spectrum of Bu2N-TTz-Py (see S2) was collected similarly at −196° C. by pumping with 389 nm light while inside a liquid nitrogen bath and then probing the emission within 2 sec of removing from the bath. Human embryonic kidney cells (HEK 293T) were a kind gift from Prof. Bryan Dickinson, and Mouse macrophage J774A.1 cells were a kind gift from Prof. Deborah Nelson at the University of Chicago. Cells were cultured in Dulbecco's Modified Eagle's Medium (Invitrogen Corporation, USA) containing 10% heat inactivated Fetal Bovine Serum (FBS) (Invitrogen Corporation, USA), 100 U/mL penicillin, and 100 μg/mL streptomycin. Cells were maintained at 37° C. under 5% CO2.
(Differential scanning fluorimetry follows unfolding on heating by fluorescence.)

Compound `CCCCN(CCCC)c1ccc(-c2nc3sc(-c4ccncc4)nc3s2)cc1` [Bu2N-TTz-Py, 2-(N,N-dibutyl-4-aminophenyl)-5-(4-pyridyl) thiazolo[5,4-d]thiazole] showed a wavelength of emission (60° C.) of 519 nm, a wavelength of emission (−131° C.) of 559 nm, a wavelength of emission (−136° C.) of 544 nm and a wavelength of emission (−196° C.) of 503 nm. In addition, the “temperature sensitivity of emission wavelength” value (TTz/MeTHF solution, liquid range of MeTHF) was −0.21 nm ° C.^−1.
